Earlier results as cited in patent US8178322B2, “Method for producing an L-amino acid or a nucleic acid” (Ajinomoto Co., Inc., priority 2007, dated 2012).
Values after ≈ are worked out from the molar mass of the structure shown. Like-named read-outs stand apart in the source and are kept apart here.

How the values were obtained:
[1] = not given; remark: listed apart in the source

SMILES | Solubility (20° C.) [g/L] | Solubility (40° C.) [g/L] | Solubility (20° C.) [1] [g/L] | Solubility (40° C.) [1] [g/L]
N[C@@H](CS)C(=O)O [L-cysteine] | 160 (≈ 1320 mM) | – | – | –
N[C@@H](CSSC[C@H](N)C(=O)O)C(=O)O [L-cystine] | 0.09 (≈ 0.375 mM) | – | – | –
NC(=O)CC[C@H](N)C(=O)O [L-glutamine] | 37.3 (≈ 255 mM) | 66 (≈ 452 mM) | – | –
N[C@@H](Cc1c[nH]cn1)C(=O)O [L-histidine] | 38 (≈ 245 mM) | 58 (≈ 374 mM) | – | –
CC[C@H](C)[C@H](N)C(=O)O [L-isoleucine] | – | 44 (≈ 335 mM) | – | –
CC(C)C[C@H](N)C(=O)O [L-leucine] | 23.8 (≈ 181 mM) | 26 (≈ 198 mM) | – | –
N[C@@H](Cc1ccccc1)C(=O)O [L-phenylalanine] | 27.4 (≈ 166 mM) | 38 (≈ 230 mM) | – | –
N[C@@H](Cc1c[nH]c2ccccc12)C(=O)O [L-tryptophan] | 10.6 (≈ 51.9 mM) | 14 (≈ 68.6 mM) | – | –
CC(C)[C@H](N)C(=O)O [L-valine] | 57.5 (≈ 491 mM) | 65 (≈ 555 mM) | – | –
Nc1ncnc2c1ncn2[C@@H]1O[C@H](CO)[C@@H](O)[C@H]1O [adenosine] | – | – | 3.0 (≈ 11.2 mM) | 8.3 (≈ 31.1 mM)
Nc1nc2c(ncn2[C@@H]2O[C@H](CO)[C@@H](O)[C@H]2O)c(=O)[nH]1 [guanosine] | – | – | 0.42 (≈ 1.48 mM) | 1.05 (≈ 3.71 mM)
Nc1nc2c(ncn2[C@@H]2O[C@H](COP(=O)(O)O)[C@@H](O)[C@H]2O)c(=O)[nH]1 [guanylic acid, guanosine-5′-monophosphate] | – | – | 206 (≈ 567 mM) | 260 (≈ 716 mM)
OC[C@H]1O[C@@H](n2cnc3c(O)ncnc32)[C@H](O)[C@@H]1O [inosine] | – | – | 44.4 (≈ 166 mM) | 83.4 (≈ 311 mM)
